Measured values taken from PMC7914897, “Cytotoxic Potential of a-Azepano- and 3-Amino-3,4-SeCo-Triterpenoids” (International Journal of Molecular Sciences, 2021).

Experiments:
Ovarian Cancer subpanel = test: NCI-60 screen, subpanel; details: Homo sapiens
Renal Cancer subpanel = test: NCI-60 screen, subpanel; details: Homo sapiens
Prostate cancer subpanel = test: NCI-60 screen, subpanel; details: Homo sapiens
K-562 (Leukemia) = test: NCI-60 screen (SRB, 48 h); details: Homo sapiens
[1] = system: A549/ATCC (NSC lung cancer); test: NCI-60 screen (SRB, 48 h); details: Homo sapiens
EKVX (NSC lung cancer) = test: NCI-60 screen (SRB, 48 h); details: Homo sapiens
HOP-62 (NSC lung cancer) = test: NCI-60 screen (SRB, 48 h); details: Homo sapiens
HOP-92 (NSC lung cancer) = test: NCI-60 screen (SRB, 48 h); details: Homo sapiens
[2] = system: NCI-H23 (NSC lung cancer); test: NCI-60 screen (SRB, 48 h); details: Homo sapiens
COLO 205 (Colon cancer) = test: NCI-60 screen (SRB, 48 h)
HCT-15 (Colon cancer) = test: NCI-60 screen (SRB, 48 h); details: Homo sapiens
SW-620 (Colon cancer) = test: NCI-60 screen (SRB, 48 h); details: Homo sapiens
SF-295 (CNS cancer) = test: NCI-60 screen (SRB, 48 h); details: Homo sapiens
SNB-19 (CNS cancer) = test: NCI-60 screen (SRB, 48 h); details: Homo sapiens
MALME-3M (Melanoma) = test: NCI-60 screen (SRB, 48 h); details: Homo sapiens
M14 (Melanoma) = test: NCI-60 screen (SRB, 48 h); details: Homo sapiens
SK-MEL-2 (Melanoma) = test: NCI-60 screen (SRB, 48 h); details: Homo sapiens
SK-MEL-28 (Melanoma) = test: NCI-60 screen (SRB, 48 h); details: Homo sapiens
UACC-62 (Melanoma) = test: NCI-60 screen (SRB, 48 h); details: Homo sapiens
OVCAR-8 (Ovarian cancer) = test: NCI-60 screen (SRB, 48 h)
[3] = system: NCI/ADR-RES (Ovarian cancer); test: NCI-60 screen (SRB, 48 h); details: Homo sapiens
ACHN (Renal cancer) = test: NCI-60 screen (SRB, 48 h); details: Homo sapiens
SN12C (Renal cancer) = test: NCI-60 screen (SRB, 48 h); details: Homo sapiens
UO-31 (Renal cancer) = test: NCI-60 screen (SRB, 48 h); details: Homo sapiens
DU-145 (Prostate cancer) = test: NCI-60 screen (SRB, 48 h); details: Homo sapiens
MCF7 (Breast cancer) = test: NCI-60 screen (SRB, 48 h); details: Homo sapiens
HS 578T (Breast cancer) = test: NCI-60 screen (SRB, 48 h); details: Homo sapiens
T-47D (Breast cancer) = test: NCI-60 screen (SRB, 48 h); details: Homo sapiens, T47D

`CC(C)=C1CCC=C2CC[C@]3(C)[C@H](CC[C@@H]4[C@@]5(C)CCCNC(C)(C)[C@@H]5CC[C@]43C)[C@H]21` [Compound 9] showed an IC (TGI) (Ovarian Cancer subpanel; 48 h, read-out: TGI MG_MID) of 3.51 µM, a GI50 (Ovarian Cancer subpanel; read-out: GI50 MG_MID) of 1.86 µM and a CC50 (Ovarian Cancer subpanel; read-out: LC50 MG_MID) of 6.19 µM. For the same compound, the IC (TGI) (Renal Cancer subpanel; 48 h, read-out: TGI MG_MID) was 3.25 µM, the GI50 (Renal Cancer subpanel; read-out: GI50 MG_MID) was 1.72 µM and the CC50 (Renal Cancer subpanel; read-out: LC50 MG_MID) was 6.03 µM. The IC (TGI) (Prostate cancer subpanel; 48 h, read-out: TGI MG_MID) was 3.29 µM, the GI50 (Prostate cancer subpanel; read-out: GI50 MG_MID) was 1.78 µM and the CC50 (Prostate cancer subpanel; read-out: LC50 MG_MID) was 6.08 µM. The GI50 (K-562 (Leukemia); K562) was 1.25 µM, the IC (TGI) (K-562 (Leukemia); K562, 48 h, read-out: TGI) was 3.5 µM and the GI50 ([1]; A549) was 1.79 µM. The IC (TGI) ([1]; A549, 48 h, read-out: TGI) was 3.52 µM, the GI50 (EKVX (NSC lung cancer)) was 1.74 µM and the IC (TGI) (EKVX (NSC lung cancer); 48 h, read-out: TGI) was 3.38 µM. The CC50 (EKVX (NSC lung cancer); read-out: LC50) was 6.56 µM, the GI50 (HOP-62 (NSC lung cancer); HOP-62) was 1.7 µM and the IC (TGI) (HOP-62 (NSC lung cancer); HOP-62, 48 h, read-out: TGI) was 3.25 µM. It also gave a GI50 (HOP-92 (NSC lung cancer); HOP-92) of 1.39 µM, an IC (TGI) (HOP-92 (NSC lung cancer); HOP-92, 48 h, read-out: TGI) of 2.77 µM and a CC50 (HOP-92 (NSC lung cancer); HOP-92, read-out: LC50) of 5.52 µM. It also gave a GI50 ([2]; NCI-H23) of 1.78 µM, an IC (TGI) ([2]; NCI-H23, 48 h, read-out: TGI) of 3.37 µM and a CC50 ([2]; NCI-H23, read-out: LC50) of 6.39 µM. The “Growth % of the Most Sensitive Cell Lines” value (COLO 205 (Colon cancer); COLO 205, 1 dose 10 µM) was −93.54%, the GI50 (COLO 205 (Colon cancer); Homo sapiens, COLO 205) was 1.48 µM and the IC (TGI) (COLO 205 (Colon cancer); Homo sapiens, COLO 205, 48 h, read-out: TGI) was 2.97 µM. It also gave a GI50 (HCT-15 (Colon cancer); HCT-15) of 1.4 µM, an IC (TGI) (HCT-15 (Colon cancer); HCT-15, 48 h, read-out: TGI) of 2.81 µM and a GI50 (SW-620 (Colon cancer); SW-620) of 1.66 µM. For the same compound, the IC (TGI) (SW-620 (Colon cancer); SW-620, 48 h, read-out: TGI) was 3.23 µM, the GI50 (SF-295 (CNS cancer); SF-295) was 1.87 µM and the IC (TGI) (SF-295 (CNS cancer); SF-295, 48 h, read-out: TGI) was 3.42 µM. The CC50 (SF-295 (CNS cancer); SF-295, read-out: LC50) was 6.24 µM, the GI50 (SNB-19 (CNS cancer); SNB-19) was 1.81 µM and the IC (TGI) (SNB-19 (CNS cancer); SNB-19, 48 h, read-out: TGI) was 3.36 µM. It also gave a GI50 (MALME-3M (Melanoma)) of 1.77 µM, an IC (TGI) (MALME-3M (Melanoma); 48 h, read-out: TGI) of 3.48 µM and a CC50 (MALME-3M (Melanoma); read-out: LC50) of 6.84 µM. For the same compound, the GI50 (M14 (Melanoma); M14) was 1.73 µM, the IC (TGI) (M14 (Melanoma); M14, 48 h, read-out: TGI) was 3.26 µM and the CC50 (M14 (Melanoma); M14, read-out: LC50) was 6.12 µM. The GI50 (SK-MEL-2 (Melanoma); SK-MEL-2) was 1.81 µM, the IC (TGI) (SK-MEL-2 (Melanoma); SK-MEL-2, 48 h, read-out: TGI) was 3.48 µM and the CC50 (SK-MEL-2 (Melanoma); SK-MEL-2, read-out: LC50) was 6.69 µM. The GI50 (SK-MEL-28 (Melanoma); SK-MEL-28) was 1.81 µM, the IC (TGI) (SK-MEL-28 (Melanoma); SK-MEL-28, 48 h, read-out: TGI) was 3.32 µM and the CC50 (SK-MEL-28 (Melanoma); SK-MEL-28, read-out: LC50) was 6.11 µM. For the same compound, the GI50 (UACC-62 (Melanoma); UACC-62) was 1.77 µM, the IC (TGI) (UACC-62 (Melanoma); UACC-62, 48 h, read-out: TGI) was 3.22 µM and the CC50 (UACC-62 (Melanoma); UACC-62, read-out: LC50) was 5.85 µM. For the same compound, the GI50 (OVCAR-8 (Ovarian cancer); Homo sapiens, OVCAR-8) was 2.01 µM, the IC (TGI) (OVCAR-8 (Ovarian cancer); Homo sapiens, OVCAR-8, 48 h, read-out: TGI) was 4.25 µM and the “Growth % of the Most Sensitive Cell Lines” value (OVCAR-8 (Ovarian cancer); OVCAR-8, 1 dose 10 µM) was −87.34%. The GI50 [3] was 1.84 µM, the IC (TGI) ([3]; 48 h, read-out: TGI) was 3.52 µM and the CC50 ([3]; read-out: LC50) was 6.73 µM. The GI50 (ACHN (Renal cancer)) was 1.76 µM, the IC (TGI) (ACHN (Renal cancer); 48 h, read-out: TGI) was 3.14 µM and the CC50 (ACHN (Renal cancer); read-out: LC50) was 5.62 µM. For the same compound, the GI50 (SN12C (Renal cancer)) was 1.83 µM, the IC (TGI) (SN12C (Renal cancer); 48 h, read-out: TGI) was 3.44 µM and the CC50 (SN12C (Renal cancer); read-out: LC50) was 6.45 µM. For the same compound, the GI50 (UO-31 (Renal cancer); UO-31) was 1.47 µM, the IC (TGI) (UO-31 (Renal cancer); UO-31, 48 h, read-out: TGI) was 2.82 µM and the CC50 (UO-31 (Renal cancer); UO-31, read-out: LC50) was 5.42 µM. For the same compound, the GI50 (DU-145 (Prostate cancer); DU-145) was 1.98 µM, the IC (TGI) (DU-145 (Prostate cancer); DU-145, 48 h, read-out: TGI) was 3.55 µM and the CC50 (DU-145 (Prostate cancer); DU-145, read-out: LC50) was 6.38 µM. For the same compound, the GI50 (MCF7 (Breast cancer); MCF7) was 1.77 µM, the IC (TGI) (MCF7 (Breast cancer); MCF7, 48 h, read-out: TGI) was 3.54 µM and the GI50 (HS 578T (Breast cancer)) was 1.79 µM. For the same compound, the IC (TGI) (HS 578T (Breast cancer); 48 h, read-out: TGI) was 4.04 µM, the CC50 (HS 578T (Breast cancer); read-out: LC50) was 9.11 µM and the GI50 (T-47D (Breast cancer)) was 1.63 µM. The IC (TGI) (T-47D (Breast cancer); 48 h, read-out: TGI) was 3.46 µM.
